What was measured:
293 cells = experiment: SEAP assay: iMC (tandem FKBP) scaffold plus FRBL2-Caspase-9; type: cell-based; settings: tandem FKBPs (iMC) present
Protocol: FIGS. 16A and 16B are line graphs showing that tandem FKBP scaffold mediates FRBL2. Caspase activation in the presence of rapalogs. FIG. 16A. HEK-293 cells were transfected with 1 μg each of SRα-SEAP reporter plasmid, Δmyr.iMC.2A-anti-CD19.CAR.CD3ζ (pBP0608), and FRBL2. Caspase-9 (pBP0467). […] After ON incubation, cell supernatants were assayed for SEAP activity, as previously described. FIG. 16B. Similar to the experiment described in (FIG. 16A), except that cells were transfected with a membrane-localized (myristoylated) iMC.2A-CD19.CAR.CD3ζ (pBP0609), instead of non-myristoylated Δmyr.iMC.2A-CD19.CAR.CD3ζ (pBP0608).
In a second test for rapalog-mediated scaffold-based activation of Caspase-9, 293 cells were transiently transfected with SRα-SEAP reporter plasmid, plus myristoylated or non-myristoylated inducible iMC co-expressed with 1st generation anti-CD19 CAR, plus FRBL2-fused Caspase-9 (plasmid pBP0467) (FIG. 16).

iC9 (pBP220) = iC9 (pBP220) (Homo sapiens, UniProt P62942, F37V); experiment: SRα-SEAP assay of drug specificity, iC9 switch, 293 cells; settings: SRα-SEAP reporter, FIG. 108A
Chain of iC9 (pBP220) (P62942 2-108 F37V): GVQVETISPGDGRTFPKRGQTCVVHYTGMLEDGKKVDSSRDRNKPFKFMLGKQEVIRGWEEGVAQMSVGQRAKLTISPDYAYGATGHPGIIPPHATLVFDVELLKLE
Chain of iC9 (pBP220) (P55211 135-416 partner limits assumed): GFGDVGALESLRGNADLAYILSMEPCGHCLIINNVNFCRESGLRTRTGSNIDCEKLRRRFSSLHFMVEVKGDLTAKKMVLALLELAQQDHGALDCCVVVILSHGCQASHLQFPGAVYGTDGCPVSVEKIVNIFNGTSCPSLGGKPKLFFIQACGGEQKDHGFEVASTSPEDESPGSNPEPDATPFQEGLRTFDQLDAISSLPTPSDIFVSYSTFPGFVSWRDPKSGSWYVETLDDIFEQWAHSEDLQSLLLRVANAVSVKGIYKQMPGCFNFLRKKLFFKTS

SMILES: CC[C@H](C(=O)N1CCCC[C@H]1C(=O)O[C@H](CCc1ccc(OC)c(OC)c1)c1cccc(OCC(=O)NCCNC(=O)COc2cccc([C@@H](CCc3ccc(OC)c(OC)c3)OC(=O)[C@@H]3CCCCN3C(=O)[C@@H](CC)c3cc(OC)c(OC)c(OC)c3)c2)c1)c1cc(OC)c(OC)c(OC)c1 [rimiducid]
- activation of FRBL2-Caspase-9 (293 cells): not activated
- activation of the iC9 switch (iC9 (pBP220)): can activate
